Assay results taken from patent publication US12370161B2, “Composition for treating atopy or pruritus comprising N-acetyl or N-acyl amino acid” (STEMDR INC., priority 2017, dated 2025).

Test system: atopic dermatitis-induced Balb/c mouse
Assay: SCORAD clinical skin score, DNFB-induced atopic dermatitis in Balb/c mouse
Type: in vivo
Parameters: key to Mouse 1 Sum / Mean (of Sum, SCORAD) / Mouse 2 Sum / Mouse 3 Sum: sum of symptom grades, each 0 (none) to 3 (severe)
Settings: DNFB Balb/c; for Mouse 1 Erythema: 0.1% in PBS, 200 μL on back skin daily day 22-28, grade 0-3 (0 no symptom, 1 mild, 2 moderate, 3 severe); for Mouse 1 Abrasion / Mouse 1 Dryness / Mouse 1 Edema / Mouse 1 Eschar / Mouse 1 Lichenification / Mouse 1 Sum / Mouse 2 Abrasion / Mouse 2 Dryness / Mouse 2 Edema / Mouse 2 Erythema / Mouse 2 Eschar / Mouse 2 Lichenification / Mouse 2 Sum / Mouse 3 Abrasion / Mouse 3 Dryness / Mouse 3 Edema / Mouse 3 Erythema / Mouse 3 Eschar / Mouse 3 Lichenification / Mouse 3 Sum / Mean (of Sum, SCORAD): 0.1% topical day 22-28; for Mouse 1 Abrasion / Mouse 1 Dryness / Mouse 1 Edema / Mouse 1 Eschar / Mouse 1 Lichenification / Mouse 2 Abrasion / Mouse 2 Dryness / Mouse 2 Edema / Mouse 2 Erythema / Mouse 2 Eschar / Mouse 2 Lichenification / Mouse 3 Abrasion / Mouse 3 Dryness / Mouse 3 Edema / Mouse 3 Erythema / Mouse 3 Eschar / Mouse 3 Lichenification: grade 0-3; for Mouse 1 Sum / Mouse 2 Sum / Mouse 3 Sum: overall dermatitis score, sum of individual scores; for Mean (of Sum, SCORAD): mean of 3 mice
Procedure: In order to induce atopy-like dermatitis in Balb/c mice, DNFB sensitization was induced by applying 100 μL of 0.35% 2,4-dinitrofluorobenzene (DNFB) (Sigma, USA) in acetone/olive oil (3:1) on the shaved back skin of the mice. Then, dermatitis was induced by applying 100 μL of 0.25% DNFB on days 6, 9, 12, 15, 18 21, 24 and 27 on the shaved back skin. Control mice were treated with a vehicle of the same volume (FIG. 1A).
After dissolving an N-acetyl or N-acylamino acid in phosphate-buffered saline to 0.1%, 200 μL of the solution was applied on the back skin of the mice every day, from day 22 until day 28 for the Balb/c atopic dermatitis model, and from day 15 until day 21 for the Nc/Nga atopic dermatitis model. When the N-acetyl or N-acylamino acid was treated together with DNFB, they were treated with 12-hour intervals in order to avoid direct reaction between the DNFB and the N-acetyl or N-acylamino acid. A non-treated group and a 2,4-dinitrofluorobenzene (DNFB) group were treated with phosphate-buffered saline of the same volume (FIGS. 1A-1B). As the N-acetylamino acid, products purchased from Sigma-Aldrich (USA), MP scientific (USA), TCI (Tokyo Chemical Industry, Japan), Santacruz (USA), etc. were used without purification.
The degree of skin soothing and the severity of atopic dermatitis were evaluated macroscopically according to the previously established SCORAD (SCORing Atopic Dermatitis) method (Oranje et al., 2007). The degree of symptoms such as edema, erythema, eschar, dryness, abrasion, lichenification, etc. was graded from 0 to 3 (0, no symptom; 1, mild; 2, moderate; 3, severe). The overall dermatitis score was determined from the sum of all individual scores (Table 1). The assessment was performed by an investigator who was blind to the grouping of the mice.

Row | Structure (SMILES) | Mouse 1 Erythema | Mouse 1 Abrasion | Mouse 1 Dryness | Mouse 1 Edema | Mouse 1 Eschar | Mouse 1 Lichenification | Mouse 1 Sum | Mouse 2 Abrasion | Mouse 2 Dryness | Mouse 2 Edema | Mouse 2 Erythema | Mouse 2 Eschar | Mouse 2 Lichenification | Mouse 2 Sum | Mouse 3 Abrasion | Mouse 3 Dryness | Mouse 3 Edema | Mouse 3 Erythema | Mouse 3 Eschar | Mouse 3 Lichenification | other results
1 | CC(=O)N[C@@H](CCC(N)=O)C(=O)O [N-acetyl-L-glutamine] | 2 | 2 | 2 | 2 | 2 | 3 | 13 | 2 | 2 | 2 | 2 | 2 | 2 | 12 | 2 | 2 | 2 | 2 | 2 | 1 | Mouse 3 Sum: 11; Mean (of Sum, SCORAD): 12
2 | CC(=O)N1CCC[C@H]1C(=O)O [N-acetyl-L-proline] | 3 | 2 | 3 | 2 | 1 | 2 | 13 | 2 | 3 | 3 | 2 | 2 | 2 | 14 | 1 | 3 | 2 | 3 | 2 | 2 | Mouse 3 Sum: 13; Mean (of Sum, SCORAD): 13.33
3 | CC(=O)N[C@@H](CCCCN)C(=O)O [N-acetyl-L-Lysine] | 3 | 2 | 3 | 2 | 2 | 1 | 13 | 2 | 2 | 3 | 3 | 2 | 3 | 15 | 2 | 3 | 2 | 3 | 2 | 2 | Mouse 3 Sum: 14; Mean (of Sum, SCORAD): 14
4 | CC(=O)NCC(=O)O [N-acetyl-L-glycine] | 3 | 2 | 2 | 2 | 2 | 3 | 14 | 2 | 3 | 2 | 3 | 2 | 3 | 15 | 2 | 3 | 2 | 3 | 2 | 3 | Mouse 3 Sum: 15; Mean (of Sum, SCORAD): 14.67
5 | CC(=O)N[C@@H](CO)C(=O)O [N-acetyl-L-serine] | 3 | 2 | 2 | 2 | 2 | 2 | 13 | 2 | 3 | 2 | 3 | 2 | 3 | 15 | 2 | 3 | 2 | 3 | 2 | 2 | Mouse 3 Sum: 14; Mean (of Sum, SCORAD): 14
6 | CC(=O)N[C@@H](Cc1ccccc1)C(=O)O [N-acetyl-L-phenylalanme] | 3 | 2 | 3 | 2 | 1 | 2 | 13 | 2 | 3 | 2 | 3 | 2 | 3 | 15 | 1 | 3 | 2 | 3 | 2 | 3 | Mouse 3 Sum: 14; Mean (of Sum, SCORAD): 14
7 | CC(=O)N[C@@H](CC(C)C)C(=O)O [N-acetyl-L-leucine] | 3 | 2 | 3 | 2 | 2 | 2 | 14 | 2 | 3 | 2 | 3 | 2 | 3 | 15 | 2 | 3 | 2 | 3 | 2 | 1 | Mouse 3 Sum: 13; Mean (of Sum, SCORAD): 14
8 | CC[C@H](C)[C@H](NC(C)=O)C(=O)O [N-acetyl-L-isoleucine] | 3 | 1 | 3 | 2 | 3 | 3 | 15 | 2 | 3 | 2 | 2 | 2 | 3 | 14 | 1 | 3 | 2 | 3 | 2 | 3 | Mouse 3 Sum: 14; Mean (of Sum, SCORAD): 14.33
